The subject of assay [1] is supercoiled circular φX174 RFI DNA. Briefly: Single-strand DNA cleavage of supercoiled circular DNA under 350 nm UV irradiation (agarose gel). It counts as biochemical. The note with it: for (% form I) / (% form II) / (% form II)/ (% form I) / DNA forms observed on gel: 350 nm UV 2.0 h. On the procedure:
Cleavage at various pH's: A reaction mixture (10 µL) containing supercoiled circular φX174 RFI DNA stock solution (50 µM/base pair), complex 1 (5.0 µM), and a phosphate buffer (0.10 M, pH 5.0, 6.0, 7.0, and 8.0) in a Pyrex vial was preincubated at 37°C. The reaction mixture was then irradiated with 350 nm UV light (32-W) for 2.0 h at room temperature. After adding a gel-loading buffer (025% bomophenol blue, 0.25% xylene cyanol, and 30% glycerol), the reaction mixture was loaded on a 1% agarose gel, followed by ethidium bromide staining. The gel was visualized by a 312-nm UV transilluminator and photographed by a FB-PDC-34 camera. Supercoiled circular DNA and cleaved DNA were clearly seen from the gel.
Cleavage at various complex concentrations: A reaction mixtures (10 µL) containing supercoiled circular φX174 RFI DNA stock solution (50 µM/base pair), complex 1 (0.050―100 µM), and a phosphate buffer (0.10 M, pH 6.0) in a Pyrex vial was preincubated at 37°C. The mixture was irradiated with 350 nm UV light (32-W) for 2.0 h at room temperature. After adding a gel-loading buffer (0.25% bromophenol blue, 0.25% xylene cyanol, and 30% glycerol), the reaction mixture was loaded on a 1% agarose gel, followed by ethidium bromide staining. The gel was visualized by a 312-nm UV transilluminator and photographed by a FB-PDC-34 camera. Supercoiled circular DNA (form I) and cleaved DNA (form II) were clearly seen from the gel.

For assay [2], the system named is 160-bp dsDNA fragment was prepared from the 501―660 fragment of pBR322 DNA. In words: Site-specific DNA cleavage of 5'-32P-labeled 160-bp dsDNA fragment (polyacrylamide/urea gel, autoradiogram). It counts as biochemical. The following applies: complex 20―100 µM, 350-nm UV 2.0 h. On the procedure:
A 160-bp dsDNA fragment was prepared from the 501―660 fragment of pBR322 DNA. It was amplified by the polymerase chain reaction (Bailly & Waring (1995) J. Am. Chem. Soc. 117:7311; Bailly et al. (1993) J. Am Chem. Soc. 115: 3784; and Sayers & Waring (1993) Biochemistry 32: 9094), and labeled at the 5'-terminus with γ-[^32P]-ATP and T4 polynucleotide kinase. A reaction mixture containing a 5'-terminus labeled ^32P-DNA solution, a phosphate buffer (0-10 M, pH 6.0), and complex 1 (20―100 µM) in a Pyrex vial was preincubated at 37°C for 30 min. The reaction mixture was irradiated with 350-nm UV light under aerobic conditions for 2.0 h at room temperature. The bound metal complexes on DNA fragments were removed by using 0.30 N NaCN (pH = 11) at 37°C for 8.0 h (Schwartz et al. (1990) J. Am. Chem. Soc. 112: 3673; and Zou et al. (1994) Biochemistry 33: 5404). The reaction mixture was then quenched with either a gel-loading buffer or 95% ethanol. […] The samples and the Maxam-Gilbert markers were analyzed using 10% polyacrylamide/8.0 M urea gel. […] Quantitation of relative intensities of DNA fragments was performed using a Microtek scanner and NIH 1.60 image program.
The detected DNA fragments were compared with Maxam-Gilbert markers on an autoradiogram, and quantitated by a computer-assisted program.

In assay [3] the test system is double helical oligonucleotide d(ATAT)2. In words: DNA binding and cleaving mechanism with oligonucleotide (LC-mass). The note with it: 1:1, phosphate buffer pH 6.0, in the dark for 2.0 h. On the procedure: A double helical oligonucleotide d(ATAT)2 was prepared and added to a phosphate buffer solution (pH = 6.0) containing complex 1(1:1). The solution was kept in the dark for 2.0 h. An intermediate was detected, at a yield of 57%, with a signal at 650.1 for (M + H^+) as analyzed by an electron spray ionization detector in LC-mass chromatogram. Then, the solution was irradiated with 350 nm-UV light for 2.0 h at room temperature. A product was detected with a signal at 456.1 for (M + H^+). […] Then an intramolecular cyclization took place to remove the DMSO and to form a covalent bond between the N-7 nitrogen atom and the platinum in complex 1, resulting in the oligonucleotide cleavage.

Another assay relates to 2'-deoxyguanosine. Briefly: Binding and cyclization reaction with 2'-deoxyguanosine (LC-mass). On the procedure: As a comparison, a reaction involving 2'-deoxyguanosine and complex 1 was carried out. Complex 1 bound to the C-2 amino on a guanine to form a Pt-N covalent bond. […] As a result, cleavage at a guanine site required assistance from an external base (e.g., piperidine). In another experiment, an excess of complex 1 was added to a 2'-deoxyguanosine solution, followed by piperidine treatment. An intermediate was detected, at a yield of 42%, with a signal at 1063.9 for (M + H^+) as analyzed by an electron spray ionization detector in LC-mass chromatogram. The intermediate was able to give a cyclization product, at a yield of 80%, with a signal at 792.0 for (M + H^+) upon 350-nm UV light irradiation, but not in the dark. The scheme below depicts the just-described reaction: [drawing 5]

The test system of assay [4] is supercoiled circular φX174 RFI DNA. Briefly: Single-strand DNA cleavage of supercoiled circular DNA under 350 nm UV irradiation (agarose gel). The note with it: in the dark. It counts as biochemical.

Molecules are shown by their SMILES.

Consider `C[S+](C)(=O)[Pt-2]1([Cl])[O][n+]2ccccc2[S]1` (centres unmarked) [complex 1, PtCl(DMSO)[η^2-C5H4SN(O)]], for which the “(% form I)” value is given as 37% in assay [1] (complex 1.0 µM, pH 6.0); 20% in assay [1] (complex 2.5 µM, pH 6.0); 7.1% in assay [1] (complex 5.0 µM, pH 6.0); 93% in assay [4] (complex 500 µM, pH 6.0). Further, the “(% form II)” value in assay [1] (complex 1.0 µM, pH 6.0) was 63%; in assay [1] (complex 2.5 µM, pH 6.0), 80%; in assay [1] (complex 5.0 µM, pH 6.0), 93%; in assay [4] (complex 500 µM, pH 6.0), 7.0%. For the same compound, the “(% form II)/ (% form I)” value is recorded as 1.7 in assay [1] (complex 1.0 µM, pH 6.0); 4.0 in assay [1] (complex 2.5 µM, pH 6.0); 13 in assay [1] (complex 5.0 µM, pH 6.0); 0.070 in assay [4] (complex 500 µM, pH 6.0). Moreover, the “DNA forms observed on gel” value in assay [1] (complex 5.0 µM, pH 5.0) was “only cleaved DNA was observed”; in assay [1] (complex 5.0 µM, pH 6.0), “only cleaved DNA was observed”; in assay [1] (complex 5.0 µM, pH 7.0) it was “only cleaved DNA was observed”; in assay [1] (complex 5.0 µM, pH 8.0) it was “both supercoiled circular DNA and cleaved DNA were observed”. In addition, the DNA cleaving activity result in assay [1] (concentration as low as 1.0 µM) is listed as “very strong DNA cleaving activity”. The “site of DNA cleavage” value is “cleaved DNA at purine residues” in assay [2] (with hot piperidine treatment) and “at adenine residues” in assay [2] (without piperidine treatment). Further, the “yield of intermediate (complex bound to adenine)” value in assay [3] was determined as 57%. Besides, in the assay on 2'-deoxyguanosine (excess of complex, followed by piperidine treatment), the “yield of intermediate (complex bound to guanine)” value was determined as 42%. Besides, the “yield of cyclization product from intermediate” value in the assay with 2'-deoxyguanosine (upon 350-nm UV light irradiation) came to 80%. In addition, in assay [4], the “cleavage of single-strand DNA” value is listed as “did not occur”.

Values taken from patent publication EP1394169A1, “Organometallic complex” (Hwu, Jih-Ru, priority 2002, dated 2004).
